The results in this text go back to US11814367B2, “Inhibitors of glycogen synthase 1 (GYS1) and methods of use thereof” (Maze Therapeutics, Inc., priority 2021, dated 2023).

In assay [1] the target is hGYS1 enzyme (recombinant hGYS1/GN1 protein) (Homo sapiens (Human), UniProt P13807). The assay can be described thus: GYS1 coupled enzyme assay (PK/LDH). Format: biochemical. The note with it: hGYS1/GN1 50 nM, UDP-Glucose 0.8 mM, G6P 1 mM; geometric mean of at least 2 runs.
In assay [2] the test system is hGYS1 enzyme / glycogen synthesis in HeLa cells. The assay can be described thus: GYS1 cell based assay (glycogen synthesis, Glucose-glo). Further details: species or system human. The note with it: Homo sapiens, HeLa, 24 h, 24 h incubation, 20 mM glucose, geometric mean of at least 2 runs. In a few lines:
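HeLa cells starved 24 h in medium containing only 1× Glutamax were plated onto compound in medium with 20 mM glucose (1% DMSO final) for 24 h, 37 °C, 5% CO2. Acid lysates were Tris-quenched, glucoamylase-digested (pH 5.3, 1 h, 37 °C) and read by Glucose-glo luminescence. IC50 came from Hill fits, as geometric mean of ≥2 runs.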

The target of assay [3] is hGYS2 enzyme (recombinant hGYS2/GN1 protein) (Homo sapiens (Human), UniProt P54840). Put plainly: GYS2 coupled enzyme assay (PK/LDH). The note with it: geometric mean of at least 2 assay runs on separate days, read-out: Avg_IC50. It counts as biochemical. In a few lines:
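IC50 came from Hill fits of duplicate percent inhibition, based on control-normalized slopes of 340 nm NADH decline read each minute for 10 min. The reaction held recombinant hGYS2/GN1 (200 nM) with glycogen, UDP-glucose, G6P and PEP, plus PK/LDH coupling at pH 7.5 and 2.5% DMSO.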

Sequence of hGYS2 enzyme (recombinant hGYS2/GN1 protein) (P54840 whole entry): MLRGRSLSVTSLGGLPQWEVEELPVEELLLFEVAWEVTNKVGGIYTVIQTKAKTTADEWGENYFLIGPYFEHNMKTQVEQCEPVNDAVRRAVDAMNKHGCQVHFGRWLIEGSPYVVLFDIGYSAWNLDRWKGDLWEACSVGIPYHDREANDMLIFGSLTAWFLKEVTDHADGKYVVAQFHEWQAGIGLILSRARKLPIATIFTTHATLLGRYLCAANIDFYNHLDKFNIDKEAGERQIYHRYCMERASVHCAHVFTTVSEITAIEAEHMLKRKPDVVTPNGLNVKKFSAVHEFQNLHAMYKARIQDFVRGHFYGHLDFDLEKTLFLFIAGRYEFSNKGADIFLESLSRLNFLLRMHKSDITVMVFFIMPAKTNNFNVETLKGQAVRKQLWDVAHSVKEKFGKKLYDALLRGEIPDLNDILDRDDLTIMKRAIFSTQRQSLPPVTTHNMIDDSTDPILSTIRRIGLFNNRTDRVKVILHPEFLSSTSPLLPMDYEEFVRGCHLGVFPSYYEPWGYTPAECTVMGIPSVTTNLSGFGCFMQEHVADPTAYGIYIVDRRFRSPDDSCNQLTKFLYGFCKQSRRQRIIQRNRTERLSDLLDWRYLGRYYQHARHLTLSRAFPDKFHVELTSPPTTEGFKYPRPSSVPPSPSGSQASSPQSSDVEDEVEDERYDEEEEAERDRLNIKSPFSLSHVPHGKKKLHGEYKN
Sequence of hGYS2 enzyme (recombinant hGYS2/GN1 protein) (P46976 whole entry partner): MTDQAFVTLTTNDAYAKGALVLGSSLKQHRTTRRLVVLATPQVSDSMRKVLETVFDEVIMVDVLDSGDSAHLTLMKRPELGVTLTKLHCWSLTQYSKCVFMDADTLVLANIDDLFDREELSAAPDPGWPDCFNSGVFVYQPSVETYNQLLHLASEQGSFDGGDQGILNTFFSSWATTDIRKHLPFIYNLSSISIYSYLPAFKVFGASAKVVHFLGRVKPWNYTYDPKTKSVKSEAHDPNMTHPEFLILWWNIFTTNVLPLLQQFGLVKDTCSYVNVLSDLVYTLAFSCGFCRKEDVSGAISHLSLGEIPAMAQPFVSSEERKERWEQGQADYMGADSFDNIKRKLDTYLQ
Sequence of hGYS1 enzyme (recombinant hGYS1/GN1 protein) (P13807 whole entry): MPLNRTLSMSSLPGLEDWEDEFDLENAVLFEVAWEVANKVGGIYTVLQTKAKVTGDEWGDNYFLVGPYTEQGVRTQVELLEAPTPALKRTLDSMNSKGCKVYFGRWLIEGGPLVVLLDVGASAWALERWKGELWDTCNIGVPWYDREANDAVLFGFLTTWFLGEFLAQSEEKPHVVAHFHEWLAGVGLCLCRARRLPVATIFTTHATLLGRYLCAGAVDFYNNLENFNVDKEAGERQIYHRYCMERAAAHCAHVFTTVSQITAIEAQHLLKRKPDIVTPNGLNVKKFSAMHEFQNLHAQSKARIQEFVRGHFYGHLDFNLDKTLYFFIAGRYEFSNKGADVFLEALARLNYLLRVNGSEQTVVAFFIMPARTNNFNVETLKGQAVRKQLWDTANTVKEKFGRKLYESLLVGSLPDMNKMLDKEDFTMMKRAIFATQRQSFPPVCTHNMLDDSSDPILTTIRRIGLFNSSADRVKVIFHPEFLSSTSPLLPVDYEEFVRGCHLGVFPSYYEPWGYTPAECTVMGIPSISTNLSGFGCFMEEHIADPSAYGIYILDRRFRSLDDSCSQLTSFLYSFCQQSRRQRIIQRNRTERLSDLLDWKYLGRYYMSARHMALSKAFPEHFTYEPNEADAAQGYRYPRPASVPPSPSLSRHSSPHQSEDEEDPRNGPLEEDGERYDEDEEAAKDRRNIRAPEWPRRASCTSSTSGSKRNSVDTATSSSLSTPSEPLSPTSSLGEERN
Sequence of hGYS1 enzyme (recombinant hGYS1/GN1 protein) (P46976 whole entry partner): as the sequence (P46976 whole entry partner) above

In the case of `Cc1cn(CC(=O)N2C[C@H](F)C[C@H]2C(=O)N[C@@H](c2ccccc2)c2ccc(C(C)C)cc2)c(=O)[nH]c1=O` [Compound 126, (2S,4R)-4-fluoro-1-[2-(5-methyl-2,4-dioxo-1,2,3,4-tetrahydropyrimidin-1-yl)acetyl]-N-[(S)-phenyl[4-(propan-2-yl)phenyl]methyl]pyrrolidine-2-carboxamide], the IC50 in assay [1] is 0.011 µM; in assay [2], 0.17 µM; in assay [3], > 100 µM.
Turning to `Cc1nn(C)c(C)c1CC(=O)N1C[C@H](F)C[C@H]1C(=O)N[C@@H](c1ccccc1)c1ccc(C(C)C)cc1` [Compound 136, (2S,4R)-4-fluoro-N-[(S)-phenyl[4-(propan-2-yl)phenyl]methyl]-1-[2-(1,3,5-trimethyl-1H-pyrazol-4-yl)acetyl]pyrrolidine-2-carboxamide], the values for the IC50 in assay [1], in assay [2] and in assay [3] were 0.009 µM, 0.17 µM and > 100 µM, respectively.
`Cc1ccc2[nH]cc(CC(=O)N3C[C@H](F)C[C@H]3C(=O)N[C@@H](c3ccccc3)c3ccc(C(C)C)cc3)c2c1` [Compound 138, (2S,4R)-4-fluoro-1-[2-(5-methyl-1H-indol-3-yl)acetyl]-N-[(S)-phenyl[4-(propan-2-yl)phenyl]methyl]pyrrolidine-2-carboxamide]: the IC50 in assay [1] was 0.012 µM; in assay [2], 0.27 µM; in assay [3], > 100 µM.
Regarding `CC(=O)N1C[C@H](C(=O)N2C[C@H](F)C[C@H]2C(=O)N[C@@H](c2ccccc2)c2ccc(C(C)C)cc2)[C@H]2OCC[C@H]21` [Compound 166, (2S,4R)-1-[(3aR,6S,6aR)-4-acetyl-hexahydro-2H-furo[3,2-b]pyrrole-6-carbonyl]-4-fluoro-N-[(S)-phenyl[4-(propan-2-yl)phenyl]methyl]pyrrolidine-2-carboxamide], the IC50 in assay [1] is 0.056 µM; in assay [2] it was 0.78 µM; in assay [3] it was > 100 µM.
In the case of `CC(=O)N1CCCC(C(=O)N2C[C@H](F)C[C@H]2C(=O)N[C@@H](c2ccccc2)c2ccc(C(C)C)cc2)C1C` (stereo partly drawn) [Compound 178, (2S,4R)-1-(1-acetyl-2-methylpiperidine-3-carbonyl)-4-fluoro-N-[(S)-phenyl[4-(propan-2-yl)phenyl]methyl]pyrrolidine-2-carboxamide], the IC50 is 0.038 µM in assay [1], 0.41 µM in assay [2] and > 100 µM in assay [3].
In the case of `CC[C@@H]1CN(C(C)=O)C[C@@H]1C(=O)N1C[C@H](F)C[C@H]1C(=O)N[C@@H](c1ccccc1)c1ccc(C(C)C)cc1` [Compound 179, (2S,4R)-1-[(3R,4S)-1-acetyl-4-ethylpyrrolidine-3-carbonyl]-4-fluoro-N-[(S)-phenyl[4-(propan-2-yl)phenyl]methyl]pyrrolidine-2-carboxamide], the IC50 in assay [1] is 0.031 µM; in assay [2], 0.4 µM; in assay [3] it was > 100 µM.
Consider `CC(=O)N1C[C@H]2CCC[C@@H](C(=O)N3C[C@H](F)C[C@H]3C(=O)N[C@@H](c3ccccc3)c3ccc(C(C)C)cc3)[C@H]2C1` [Compound 183, (2S,4R)-1-[(3aS,4R,7aS)-2-acetyl-octahydro-1H-isoindole-4-carbonyl]-4-fluoro-N-[(S)-phenyl[4-(propan-2-yl)phenyl]methyl]pyrrolidine-2-carboxamide], for which the IC50 in assay [1] is 0.041 µM; in assay [2] it was 0.93 µM; in assay [3], > 100 µM.
For `CC(=O)N1CCC2(CCC(C(=O)N3C[C@H](F)C[C@H]3C(=O)N[C@@H](c3ccccc3)c3ccc(C(C)C)cc3)C2)CC1` (stereo partly drawn) [Compound 184, (2S,4R)-1-{8-acetyl-8-azaspiro[4.5]decane-2-carbonyl}-4-fluoro-N-[(S)-phenyl[4-(propan-2-yl)phenyl]methyl]pyrrolidine-2-carboxamide] the same measures were 0.075 µM, 3.03 µM and > 100 µM.
In the case of `CC(C)c1ccc([C@@H](NC(=O)[C@@H]2C[C@@H](F)CN2C(=O)CNc2ncco2)c2ccccc2)cc1` [Compound 198, (2S,4R)-4-fluoro-1-{2-[(1,3-oxazol-2-yl)amino]acetyl}-N-[(S)-phenyl[4-(propan-2-yl)phenyl]methyl]pyrrolidine-2-carboxamide], the IC50 in assay [1] is 0.031 µM; in assay [2] it was 0.39 µM; in assay [3] it was > 100 µM.
As for `CC(C)c1ccc([C@@H](NC(=O)[C@@H]2C[C@@H](F)CN2C(=O)Cn2cnnc2)c2ccccc2)cc1` [Compound 202, (2S,4R)-4-fluoro-N-[(S)-phenyl[4-(propan-2-yl)phenyl]methyl]-1-[2-(4H-1,2,4-triazol-4-yl)acetyl]pyrrolidine-2-carboxamide], the values for the IC50 in assay [1], in assay [2] and in assay [3] were 0.071 µM, 1.86 µM and > 100 µM, respectively.
`CC(C)c1ccc([C@@H](NC(=O)[C@@H]2C[C@@H](F)CN2C(=O)CN2CCOCC2=O)c2ccccc2)cc1` [Compound 219, (2S,4R)-4-fluoro-1-[2-(3-oxomorpholin-4-yl)acethyl]-N-[(S)-phenyl[4-(propan-2-yl)phenyl]methyl]pyrrolidine-2-carboxamide]: the IC50 is 0.101 µM in assay [1], 1.41 µM in assay [2] and > 100 µM in assay [3].
As to `Cc1nn(CC(=O)N2C[C@H](F)C[C@H]2C(=O)N[C@@H](c2ccccc2)c2ccc(C(C)C)cc2)c(=O)o1` [Compound 236, (2S,4R)-4-fluoro-1-[2-(5-methyl-2-oxo-2,3-dihydro-1,3,4-oxadiazol-3-yl)acetyl]-N-[(S)-phenyl[4-(propan-2-yl)phenyl]methyl]pyrrolidine-2-carboxamide], the IC50 in assay [1] is 0.058 µM; in assay [2] it was 0.81 µM; in assay [3], > 100 µM.
Regarding `CC(=O)NCc1nnc(CC(=O)N2C[C@H](F)C[C@H]2C(=O)N[C@@H](c2ccccc2)c2ccc(C(C)C)cc2)o1` [Compound 239, (2S,4R)-1-{2-[5-(acetamidomethyl)-1,3,4-oxadiazol-2-yl]acetyl}-4-fluoro-N-[(S)-phenyl[4-(propan-2-yl)phenyl]methyl]pyrrolidine-2-carboxamide], the IC50 in assay [1] is 0.067 µM; in assay [2], 1.56 µM; in assay [3], > 100 µM.
Take `CC(C)c1ccc([C@@H](NC(=O)[C@@H]2C[C@@H](F)CN2C(=O)Cn2nncc2CN)c2ccccc2)cc1` [Compound 240, (2S,4R)-1-{2-[5-(aminomethyl)-1H-1,2,3-triazol-1-yl]acetyl}-4-fluoro-N-[(S)-phenyl[4-(propan-2-yl)phenyl]methyl]pyrrolidine-2-carboxamide]: the IC50 was 0.06 µM in assay [1], 2.09 µM in assay [2] and > 100 µM in assay [3].
Turning to `CC(C)c1ccc([C@@H](NC(=O)[C@@H]2C[C@@H](F)CN2C(=O)Cn2nncc2CN(C)C)c2ccccc2)cc1` [Compound 241, (2S,4R)-1-(2-{5-[(dimethylamino)methyl]-1H-1,2,3-triazol-1-yl}acetyl)-4-fluoro-N-[(S)-phenyl[4-(propan-2-yl)phenyl]methyl]pyrrolidine-2-carboxamide], the figures for the IC50 in assay [1], in assay [2] and in assay [3] were 0.082 µM, 1.14 µM and > 100 µM, respectively.
For `CC(C)c1ccc([C@@H](NC(=O)[C@@H]2C[C@@H](F)CN2C(=O)Cc2nnc(CN(C)C)o2)c2ccccc2)cc1` [Compound 242, (2S,4R)-1-(2-{5-[(dimethylamino)methyl]-1,3,4-oxadiazol-2-yl}acetyl)-4-fluoro-N-[(S)-phenyl[4-(propan-2-yl)phenyl]methyl]pyrrolidine-2-carboxamide], the IC50 in assay [1] was 0.079 µM; in assay [2], 1.14 µM; in assay [3], > 100 µM.
With `CC(=O)NCc1cnnn1CC(=O)N1C[C@H](F)C[C@H]1C(=O)N[C@@H](c1ccccc1)c1ccc(C(C)C)cc1` [Compound 243, (2S,4R)-1-{2-[5-(acetamidomethyl)-1H-1,2,3-triazol-1-yl]acetyl}-4-fluoro-N-[(S)-phenyl[4-(propan-2-yl)phenyl]methyl]pyrrolidine-2-carboxamide], the IC50 was 0.086 µM in assay [1], 2.25 µM in assay [2] and > 100 µM in assay [3].
Consider `CC(C)c1ccc([C@@H](NC(=O)[C@@H]2C[C@@H](F)CN2C(=O)Cc2cnn[nH]2)c2ccccc2)nc1` [Compound 244, (2S,4R)-1-(2-(1H-1,2,3-triazol-5-yl)acetyl)-4-fluoro-N-((S)-(5-isopropylpyridin-2-yl)(phenyl)methyl)pyrrolidine-2-carboxamide], for which the IC50 in assay [1] is 0.077 µM; in assay [2] it was 1.8 µM; in assay [3], > 100 µM.
As to `Cc1n[nH]c(C)c1CC(=O)N1C[C@H](F)C[C@H]1C(=O)N[C@@H](c1ccccc1)c1ccc(C(C)C)cn1` [Compound 246, (2S,4R)-1-[2-(3,5-dimethyl-1H-pyrazol-4-yl)acetyl]-4-fluoro-N-[(S)-phenyl[5-(propan-2-yl)pyridin-2-yl]methyl]pyrrolidine-2-carboxamide], the IC50 was 0.033 µM in assay [1], 0.62 µM in assay [2] and > 100 µM in assay [3].
Regarding `CC(C)c1ccc([C@@H](NC(=O)[C@@H]2C[C@@H](F)CN2C(=O)Cc2cccc3ncccc23)c2ccccc2)nc1` [Compound 247, (2S,4R)-4-fluoro-N-[(S)-phenyl[5-(propan-2-yl)pyridin-2-yl]methyl]-1-[2-(quinolin-5-yl)acetyl]pyrrolidine-2-carboxamide], the IC50 in assay [1] was 0.01 µM; in assay [2], 0.18 µM; in assay [3] it was > 100 µM.
